Literature values in US20070185063A1, “Seven-membered ring nucleosides” (Idenix Pharmaceuticals, Inc., priority 2005, published 2007).
Each block holds one compound with its values, some of them ahead of it.

What was measured:
[1] = tested on: human granulocyte-macrophage colony-forming (CFU-GM) activity; settings: in vitro, bone marrow cells from healthy volunteers; clinically relevant concentrations
[2] = tested on: erythroid burst-forming (BFU-E) activity; settings: in vitro, bone marrow cells from healthy volunteers; clinically relevant concentrations
[3] = in vivo
HCV = settings: ribavirin alone

concentration that directly inhibits CFU-GM activity [1]: 1 to 2 µM | concentration that directly inhibits BFU-E activity [2]: 1 to 2 µM
Structure (SMILES): Cc1cn([C@H]2C[C@H](N=[N+]=[N-])[C@@H](CO)O2)c(=O)[nH]c1=O [ZDV, zidovudine]

Structure (SMILES): O=c1[nH]c(=O)n([C@@H]2O[C@H](CO)[C@@H](O)[C@@H]2F)cc1I [fialuridine, 1,-2′-deoxy-2′-fluoro-1-β-D-arabinofuranosyl-5-iodo-uracil]
clinical adverse events due to direct mitochondrial toxicity [3]: caused hepatic failure, pancreatitis, neuropathy, myopathy and lactic acidosis

Structure (SMILES): NC(=O)c1ncn([C@@H]2O[C@H](CO)[C@@H](O)[C@H]2O)n1 [Ribavirin, 1-β-D-ribofuranosyl-1-1,2,4-triazole-3-carboxamide]
effect on serum levels of HCV-RNA (HCV): does not lower serum levels of HCV-RNA | patients in whom serum amino transferase levels are reduced to normal (HCV): 40%
